Measured values taken from patent publication US9409906B2, “Pyrimido[4,5-B]indole derivatives and use thereof in the expansion of hematopoietic stem cells” (UNIVERSITÉ DE MONTRÉAL, priority 2012, dated 2016).
Entries after “also recorded” stand apart in the source; their conditions may differ.

What was measured:
[1] = system: CD34+ mobilized peripheral blood (mPB) cells; assay: Ex vivo expansion of mobilized peripheral blood-derived CD34+ and CD34+CD45RA− cells (FIG. 5A); assay type: cell-based, human
Text: FIG. 5: A) Compound 1 expands mobilized peripheral blood-derived CD34+ and CD34+CD45RA− cell populations ex vivo. […] This observation was enhanced with the co-treatment with SR1.
[…]. The level of expansion is the same whether cultures are initiated with Compound 1, SR1, Compound 1+SR1, or control DMSO. […] […].

[2] = system: CD34+ cells from mobilized PB; assay: Long term 10-day ex vivo culture of CD34+ cells from mobilized PB; assay type: cell-based, human
Experimental: The following biological assays were used to assess the effect of the compounds of the invention on hematopoietic stem cell expansion. Culture medium: The culture medium used consisted of serum-free medium supplemented with the following recombinant cytokines: interleukin-6, thrombopoietin, Flt-3 ligand, and stem cell factor, each at a final concentration of 100 ng/ml, in the presence of vehicle (DMSO), positive control (SR1), or compound of the invention or a combination of compounds. Cell Culture: CD34+ cell purity of initial harvests was higher than 90%, as determined by flow cytometry. The CD34+CD45RA− subpopulation reached purity levels higher than 70%. Cells were plated at 40,000 cells/ml and incubated for 7 to 12-days at 37° C. in 5% CO2. For long term cultures, 200,000 CD34+ cells/ml from mobilized PB were plated with serum free media supplemented with interleukin-6, thrombopoietin, Flt3 ligand, and stem cell factor, each at a final concentration of 100 ng/ml, in the presence of vehicle (DMSO), positive control, or a compound of the invention at 500 nM. After a 10-day ex vivo culture Compound 1 (Table 1) promoted more than 7-fold expansion of MNCs, more than 5-fold increase in CD34+ cells over input values (day 0), and almost 4-fold increase over the values determined for vehicle. After 10 days of ex vivo culture, Compound 1-treated cells retained a high level of CD34 expression (65.8±5.5%) compared to cells cultured with vehicle (DMSO) (22.8±0.9%). Moreover, only Compound 1-treated cells retained the highest expression of CD34+CD45RA− population (24.8±0.9%) compared to that of vehicle (4.7±0.4%). The numbers of CD34+CD45RA− cultured with Compound 1 increased by almost 3-fold compared to that of vehicle and 7-fold more than that of input. Finally, the compounds of the invention were assayed in a dose-response format (concentrations ranging from 1 nM to 5000 nM) to determine the effective concentration that produced a 50% increase in the number of CD34+CD45RA− cells compared to vehicle condition.

[3] = system: CD34+ mobilized peripheral blood cells; assay: FACS analysis of differentiation of CD34+ mobilized peripheral blood cells (FIG. 4A); assay type: cell-based, human
Text: FIG. 4A illustrates the impact of Compound 1 on mobilized peripheral blood cell differentiation. Following a 7 day expansion, a relatively pure (>85% CD34^+) population of mobilized peripheral blood was exposed to control the (DMSO) or Compound 1 or SR1 or Compound 1+SR1.

CD34+ mPB cells = assay: Colony-forming units in culture (CFU-C) assay in methylcellulose; assay type: cell-based, human; conditions: 1000 CD34+ mPB cells treated for 10 days
Experimental: The ex vivo functionality of expanded cells was tested using the conventional colony-forming units in culture (CFU-C) assay. Untreated cells or cells incubated with DMSO, positive control or a compound of the invention were plated in methylcellulose medium in conventional conditions. As an example, Compound 1 (Table 1, Example 1) expands the number of multipotent hematopoietic progenitors.

[4] = system: CD34+CD45RA− cord blood cells; assay: Ex vivo expansion of cord blood-derived CD34+ and CD34+CD45RA− cells (FIG. 5B, 5C); assay type: cell-based, human
[5] = system: CD34+ CB cells transplanted in NSG mice; assay: Engraftment of cultured CD34+ cord blood cells in NSG mice (FIG. 7); conditions: outcome of 5,000 CD34+ CB cells, 7 days culture, 8-weeks post transplantation (FIG. 7A)
Text: These experiments were done in short term cultures i.e. 7 days.

[6] = system: CD34+ mPB cells transplanted in NSG mice; assay: Engraftment of cultured CD34+ mPB cells in NSG mice
[7] = system: Mobilized peripheral blood CD34(+) cells; assay: Growth factor (Flt3, SCF, TPO) requirement / mitogen test (FIG. 3); assay type: cell-based, human
Experimental: FIG. 3: Flt3, SCF, and TPO are required for compound 1 mediated stem cell expansion. Mobilized peripheral blood CD34(+) cells were cultured for 7 days in the presence or absence of the growth factors (Flt3+SCF+TPO).
This indicate that akin to SR1, Compound 1's effect on maintenance of primitive HSC phenotype ex vivo is not due to a mitogenic effect on this population but rather on the prevention of cell differentiation.

CD34+ cord blood cells = assay: FACS analysis of differentiation of CD34+ cord blood cells (FIG. 4B-4D); conditions: FACS / cytological analysis
[8] = system: AhR-responsive genes (CYP1B1 and AhRR); assay: Real-time quantitative RT-PCR for AhR-responsive genes (FIG. 1); assay type: cell-based, human; conditions: mPB CD34(+) cells, 12 hours, Compound 1 500 nM
Experimental: Mobilized peripheral blood CD34(+) cells were cultured for 12 hours with DMSO, SR1 [AhR antagonist 1000 nM], and Compound 1 [500 nM], cells were harvested and real-time quantitative RT-PCR for AhR-responsive genes (CYP1B1 and AhRR) was performed.

[9] = outcome of 2,000,000 and 500,000 cells cultured 10 days, 8 weeks post transplantation

COC(=O)c1ccc2c(c1)[nH]c1ncnc(NCCCN3CCCCC3)c12 [Compound 1, Methyl 4-((3-(piperidin-1-yl)propyl)amino)-9H-pyrimido[4,5-b]indole-7-carboxylate]
expansion of CD34+CD45RA− cell subpopulation ([1]; 12-days culture): about ten fold
total cell count increase above the input ([1]; 12-days culture): about 20 fold
CD34+ population vs DMSO ([1]; FIG. 5A): more than twice
CD34+CD45RA− population vs DMSO ([1]; FIG. 5A): more than three times
total cell count vs DMSO ([1]; FIG. 5A): the same
expansion of MNCs ([2]; 10-day ex vivo culture, 500 nM): more than 7 fold
increase in CD34+ cells over input values (day 0) ([2]; 10-day ex vivo culture, 500 nM): more than 5 fold
increase in CD34+ cells over the values determined for vehicle ([2]; 10-day ex vivo culture, 500 nM): ~4 fold
numbers of CD34+CD45RA− compared to input ([2]; 10-day ex vivo culture, 500 nM): 7 fold
numbers of CD34+CD45RA− compared to vehicle ([2]; 10-day ex vivo culture, 500 nM): ~3 fold
expression of CD34+CD45RA− population ([2]; after 10 days of ex vivo culture, vehicle 4.7±0.4%): 24.8±0.9%
level of CD34 expression ([2]; after 10 days of ex vivo culture, vehicle 22.8±0.9%): 65.8±5.5%
loss of CD34 cell surface expression ([3]; 7 day expansion, optimal levels, vs DMSO control): partly abrogated
differentiation of CD34+ mobilized peripheral blood cells ([3]; FACS / cytological analysis): prevent cell differentiation; also recorded: reduces differentiation
CD34+ cell population compared to DMSO treated control cells ([3]; FACS analysis): able to expand CD34+ cell population
CD34+CD45RA− cells vs SR1 or control cultures ([3]; FIG. 4A, 4B bottom panels): more numerous
increase in multilineage GEMM colonies compared to control cells (CD34+ mPB cells): 10 fold
increase in multilineage GEMM colonies over input cells (CD34+ mPB cells): 5 fold
expansion of cord blood-derived CD34+ and CD34+CD45RA− cells ([4]; 7-day incubation): enhances expansion
in vitro expansion of cord blood-derived CD34+ and CD34+CD45RA− cells ([4]; 12-day incubation): positive effect
expansion of CD34+CD45RA− cord blood cells ([4]; seven day period, DMSO about fifteen fold): 30-40 fold
human CD45+ engraftment / reconstitution activity [5]: clear effect on reconstitution activity
human CD45+ engraftment / reconstitution activity ([5]; listed as compound 1): human CD45+ engraftment
human hematopoietic engraftment (human CD45+ cells in BM) ([6]; cells cultured ten days, outcome of 50,000 and 500,000 cells, 13 week post-transplantation): superior to SR1; also recorded: engrafted better than that of DMSO
engraftment of NSG mice (human CD45) [6, 9]: able to engraft NSG mice
reconstitution of human myeloid and lymphoid compartments in bone marrow [6, 9]: positive for human CD33+ and CD19+
induction of cell proliferation in the absence of growth factors (Flt3, TPO, SCF) [7]: not able to induce cell proliferation
CD34+CD45RA− cell count in the absence of any of the growth factors ([7]; 7 days, with or without Flt3+SCF+TPO): lower
differentiation of CD34+ cord blood cells (CD34+ cord blood cells): reduces differentiation
suppression of AhR-downstream target genes (CYP1B1 and AhRR) [8]: does not suppress AhR-downstream target genes
